Data as given in patent US5091547A, “Phenylacetic acid derivative and process for making same” (priority 1989, dated 1992).
Counter-ions that a name gives are not always drawn.

Assays:
[1] = acid as such; cited from earlier work
[2] = system: ulcers induced by absolute ethanol; assay: Protective activity, ulcers induced by absolute ethanol; type: in vivo, rats
Excerpt: As explained previously, the compound of formula (I), which shall henceforth be referred to herein as LV-216, combines the advantage of anti-inflammatory and protective action.

[3] = system: ulcerous lesions in the stomach and intestine; assay: Comparative ulcerogenic action, macroscopic lesion indices (Adami's criterion); type: in vivo, Female Wistar rats
Method: Group I: control (excipient) (n=8)
Group II: sodium salt 10 mg/kg (n=8)
Group IV: sodium salt 10 mg/kg+zinc sulphate 2.5 mg/kg (n=8) (equivalent doses).
The products were administered orally every day for four consecutive days. The animals were given no food during the 24 hours prior to the last dose.

Molecule: O=C(O)Cc1ccccc1Nc1c(Cl)cccc1Cl [2-(2,6-dichloroaniline)-phenylacetic acid]
- Water solubility (in words, background) [1]: practically insoluble in water
- inhibition of ulcers induced by absolute ethanol (in words) ([2]; equimolecular dose): does not inhibit the ulcers induced by absolute ethanol

Molecule: O=C(O)Cc1ccccc1Nc1c(Cl)cccc1Cl [sodium salt, sodium salt of 2-(2,6-dichloroaniline)-phenylacetic acid]
- mm lesion (lesion index) ([2]; LV-216 11 mg/kg, sodium salt at equimolecular dose, control 86.3 ± 9.4): 70.8 ± 8.2 mm
- % inhibition of ulcers ([2]; versus control, LV-216 11 mg/kg, sodium salt at equimolecular dose): 17.9%
- Macroscopic lesion index (x ± e) ([3]; oral, daily for four consecutive days, SS 10 mg/kg, LV-216 11 mg/kg, SS 10 mg/kg + zinc sulphate 2.5 mg/kg, n=8, control 0.4 ± 0.2): 4.0 ± 0.4
- t vs CONTROL (lesion index) ([3]; versus control): *** (p < 0.001)
- ulcerous index versus control (in words) ([3]; versus control): statistically significant versus the control groups

Molecule: zinc compound of 2-(2,6-dichloroaniline)-phenylacetic acid [LV-216]
- t test of mm lesion versus control ([2]; 11 mg/kg, versus control): a (p < 0.01 versus control)
- inhibition of ulcers induced by ethanol (protective action) ([2]; rats, doses of between 5 and 15 mg/kg): ≤ 80%
- gastric tolerance (in words) ([3]; compared with sodium salt alone or in combination with zinc): surprisingly high degree of gastric tolerance, greater than that shown by the sodium salt administered alone or in combination with Zinc
